{"source": "patent US12577238B2", "about": "“Compositions and methods for modulating inflammatory and degenerative disorder” (University of Southern California, priority 2018, dated 2026)", "key": {"[1]": {"test_system": "Col10a1-RFP reporter in limb bud mesenchymal cells", "experiment": "High throughput screen, Col10a1 reporter in BMP-4 stimulated limb mesenchymal cells", "type": "cell-based, mouse", "details": "~170,000 compounds screened", "procedure": "The gp130 co-receptor LIFR is expressed on a subset of superficial chondrocytes throughout human ontogeny. […] Given the known (and mostly detrimental roles) of IL-6 family cytokines on articular chondrocytes, a high throughput screen was performed to identify small molecules that could potentially modulate gp130 signaling. In adult mice, IL-6/gp130 signaling drives Col10a1 expression and hypertrophy, which has been strongly associated with OA progression; ˜170,000 compounds were thus screened for their ability to prevent increases in Col10-mCherry fluorescence in mouse limb mesenchymal cells stimulated with BMP-4, a strong driver of hypertrophy (FIG. 2)."}, "[2]": {"test_system": "human fetal articular chondrocytes", "experiment": "Alkaline phosphatase / hypertrophy in fetal articular chondrocytes", "type": "cell-based"}, "[3]": {"biological_target": "T1, gp130 (Rattus norvegicus, UniProt P40190)", "T1 construct": "from tissue; host or cells: rat knee joint in vivo (Sprague-Dawley wild-type in the CFA model)", "T1 sequence (P40190 23-918)": "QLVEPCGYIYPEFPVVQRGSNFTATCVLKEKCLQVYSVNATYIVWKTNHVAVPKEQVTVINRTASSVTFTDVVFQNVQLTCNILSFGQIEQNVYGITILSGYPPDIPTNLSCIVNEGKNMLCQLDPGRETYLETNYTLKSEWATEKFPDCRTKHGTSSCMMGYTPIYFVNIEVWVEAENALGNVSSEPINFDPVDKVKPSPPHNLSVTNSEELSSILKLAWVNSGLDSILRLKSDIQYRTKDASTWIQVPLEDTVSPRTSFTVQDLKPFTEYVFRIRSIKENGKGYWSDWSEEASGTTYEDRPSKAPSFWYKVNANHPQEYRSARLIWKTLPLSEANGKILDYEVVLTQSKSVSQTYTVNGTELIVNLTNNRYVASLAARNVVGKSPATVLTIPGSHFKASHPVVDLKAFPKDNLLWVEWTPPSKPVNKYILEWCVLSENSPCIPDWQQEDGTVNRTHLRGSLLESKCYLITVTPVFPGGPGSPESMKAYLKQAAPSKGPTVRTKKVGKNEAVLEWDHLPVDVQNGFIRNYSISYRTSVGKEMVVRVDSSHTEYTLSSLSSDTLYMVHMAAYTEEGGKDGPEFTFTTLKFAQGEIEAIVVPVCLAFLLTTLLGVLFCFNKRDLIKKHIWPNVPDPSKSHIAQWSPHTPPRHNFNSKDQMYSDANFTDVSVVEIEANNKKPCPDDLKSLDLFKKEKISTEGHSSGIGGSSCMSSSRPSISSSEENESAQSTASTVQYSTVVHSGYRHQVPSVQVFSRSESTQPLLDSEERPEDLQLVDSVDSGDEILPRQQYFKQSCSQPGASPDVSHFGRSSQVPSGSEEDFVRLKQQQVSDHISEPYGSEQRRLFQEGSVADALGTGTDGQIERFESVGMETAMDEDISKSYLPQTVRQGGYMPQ", "experiment": "Injection into rat knees, pSTAT3 and MYC levels", "type": "in vivo", "details": "injection into rat joints", "procedure": "Based on this, it was hypothesized that RCGD 423 acts through gp130 by promoting stable homodimers in the absence of ligand. To confirm that RCGD 423 acts through gp130, the gp130 null cell line Ba/F3 cells was used. Ba/F3 cells were transfected with either full-length gp130 or a mutant gp130 lacking domain 2 (ΔD2), which contains the predicted binding site for RCGD 423 (FIG. 7). […] To verify the specificity of RCGD 423 in vivo, the compound was injected into rat knees in the presence of the small molecule gp130 inhibitor SC144 or a blocking antibody specific for domain 2 of gp130. […] The ability of RCGD 423 to act via inducing formation of gp130 homodimers was then examined by expressing tagged versions of gp130 in 293T cells. In this system, only homodimeric complexes can contain both tagged versions of gp130 (FIG. 9)."}, "[4]": {"test_system": "NF-κB protein", "experiment": "OSM or IL-6 induced NF-κB in human adult articular chondrocytes", "type": "cell-based", "details": "in combination with OSM or IL-6"}, "[5]": {"experiment": "Rat model of degenerative osteoarthritis (partial meniscectomy)", "type": "in vivo", "procedure": "In this system, 50% of the meniscus is surgically removed, promoting joint instability similar to what is commonly observed in human OA and degeneration of articular cartilage in 3-6 weeks (FIGS. 12A and B). RCGD 423 loaded onto PLGA (poly(lactic-co-glycolic acid)) microspheres for slow release, or microspheres alone, were injected into the joint space at the time of surgery and 3 weeks later."}}, "note": "“Also recorded” adds a separate entry of the source."}
{"smiles": "Brc1ccc(Nc2nc(-c3ccccc3)cs2)cc1", "note": "[RCGD 423]", "values": [{"measurement": "ability to prevent increases in Col10-mCherry fluorescence (Col10a1 reporter)", "setting": "[1]", "value": "primary hit"}, {"measurement": "increases in alkaline phosphatase, a marker of hypertrophy", "setting": "[2]", "value": "could prevent increases in alkaline phosphatase; also recorded: ability of the compound to inhibit hypertrophy was confirmed"}, {"measurement": "pSTAT3 and MYC levels in rat joints", "setting": "[3]", "value": "increased pSTAT3 and MYC levels"}, {"measurement": "increases in NF-κB protein / signaling downstream of OSM and IL-6", "setting": "[4]", "value": "significantly reduced increases in NF-κB protein; also recorded: reduces signaling downstream of OSM and IL-6"}, {"measurement": "OARSI scores", "setting": "[5]; 6 weeks, loaded onto PLGA microspheres, injected into joint space at surgery and 3 weeks later", "value": "highly significantly lower OARSI scores"}, {"measurement": "expression of proteolytic (catabolic) enzymes after joint injury", "setting": "[5]; rat OA model", "value": "decreased the expression of proteolytic enzymes; also recorded: decreased the levels of catabolic enzymes"}, {"measurement": "formation, size and maturity of osteophytes", "setting": "[5]; rats following partial meniscectomy", "value": "inhibited both the formation and maturity of osteophytes; also recorded: reduced the size and maturity of osteophytes"}]}
